In patent publication US10787459B2, “Bicyclic compounds as ATX inhibitors” (Hoffmann-La Roche Inc., priority 2015, dated 2020):

biological target: ATX (human His-tagged) (Homo sapiens (Human), UniProt Q13822); experiment: Human ATX enzyme inhibition assay (fluorescence quenching, MR121 substrate); format: biochemical; details: 30 nM ATX, 1 μM MR121 substrate, 30° C., pH 8.0; read-out: ATX IC50
Text: Human ATX Enzyme Inhibition Assay
Assay working solutions were made as follows:

| Compound | IC50 |
| --- | --- |
| O=C(OCc1ccc(OC(F)(F)F)cc1)N1C[C@@H]2CN(C(=O)c3ccc4[nH]nnc4c3)C[C@@]2(F)C1 (relative stereo) [Example 1.00, trans-5-(1H-Benzotriazole-5-carbonyl)-3a-fluoro-hexahydro-pyrrolo[3,4-c]pyrrole-2-carboxylic acid 4-trifluoromethoxy-benzyl ester] | 0.005 µM |
| CO[C@]12CN(C(=O)OCc3ccc(OC(F)(F)F)cc3)C[C@@H]1CN(C(=O)c1ccc3[nH]nnc3c1)C2 (relative stereo) [Example 1.01, trans-5-(1H-benzotriazole-5-carbonyl)-3a-methoxy-hexahydro-pyrrolo[3,4-c]pyrrole-2-carboxylic acid 4-trifluoromethoxy-benzyl ester] | 0.012 µM |
| CO[C@]12CN(C(=O)CCc3ccc(OC(F)(F)F)cc3)C[C@@H]1CN(C(=O)c1ccc3[nH]nnc3c1)C2 (relative stereo) [Example 1.02, trans-1-[5-(1H-benzotriazole-5-carbonyl)-3a-methoxy-3,4,6,6a-tetrahydro-1H-pyrrolo[3,4-c]pyrrol-2-yl]-3-[4-(trifluoromethoxy)phenyl]propan-1-one] | 0.01 µM |
| CO[C@@]12CN(C(=O)c3cc(OCC4CCOCC4)nc(C4CC4)c3)C[C@H]1CN(C(=O)c1ccc3[nH]nnc3c1)C2 (relative stereo) [Example 1.03, trans-[5-[2-cyclopropyl-6-(oxan-4-ylmethoxy)pyridine-4-carbonyl]-3a-methoxy-3,4,6,6a-tetrahydro-1H-pyrrolo[3,4-c]pyrrol-2-yl]-(1H-benzotriazol-5-yl)methanone] | 0.013 µM |
| C[C@]12CN(C(=O)OCc3ccc(OC(F)(F)F)cc3)C[C@@H]1CN(C(=O)c1ccc3[nH]nnc3c1)C2 (relative stereo) [Example 1.04, trans-5-(1H-benzotriazole-5-carbonyl)-3a-methyl-hexahydro-pyrrolo[3,4-c]pyrrole-2-carboxylic acid 4-trifluoromethoxy-benzyl ester] | 0.013 µM |
| CO[C@]12CN(C(=O)CCc3ccc(OC(F)(F)F)cc3)C[C@@H]1CN(C(=O)c1ccc3[nH]c(=O)n(C)c3c1)C2 (relative stereo) [Example 1.05, trans-5-[3a-methoxy-2-[3-[4-(trifluoromethoxy)phenyl]propanoyl]-3,4,6,6a-tetrahydro-1H-pyrrolo[3,4-c]pyrrole-5-carbonyl]-3-methyl-1H-benzimidazol-2-one] | 0.018 µM |
| CO[C@@]12CN(C(=O)c3cc(OCC4CCOCC4)nc(C4CC4)c3)C[C@H]1CN(C(=O)c1ccc3[nH]c(=O)n(C)c3c1)C2 (relative stereo) [Example 1.06, trans-5-[5-[2-cyclopropyl-6-(oxan-4-ylmethoxy)pyridine-4-carbonyl]-3a-methoxy-3,4,6,6a-tetrahydro-1H-pyrrolo[3,4-c]pyrrole-2-carbonyl]-3-methyl-1H-benzimidazol-2-one] | 0.002 µM |
| CO[C@]12CN(C(=O)CCc3ccc(OC(F)(F)F)cc3)C[C@@H]1CN(C(=O)N1CCc3[nH]nnc3C1)C2 (relative stereo) [Example 2.01, trans-1-[3a-methoxy-5-(1,4,6,7-tetrahydrotriazolo[4,5-c]pyridine-5-carbonyl)-3,4,6,6a-tetrahydro-1H-pyrrolo[3,4-c]pyrrol-2-yl]-3-[4-(trifluoromethoxy)phenyl]propan-1-one] | 0.03 µM |
| CO[C@]12CN(C(=O)CCc3ccc(OC(F)(F)F)cc3)C[C@@H]1CN(C(=O)N1CCc3c(O)noc3C1)C2 (relative stereo) [Example 2.02, trans-1-[5-(3-hydroxy-5,7-dihydro-4H-[1,2]oxazolo[5,4-c]pyridine-6-carbonyl)-3a-methoxy-3,4,6,6a-tetrahydro-1H-pyrrolo[3,4-c]pyrrol-2-yl]-3-[4-(trifluoromethoxy)phenyl]propan-1-one] | 0.12 µM |
| CO[C@]12CN(C(=O)c3cc(OCC4CCOCC4)nc(C4CC4)c3)C[C@@H]1CN(C(=O)N1CCc3c(O)noc3C1)C2 (relative stereo) [Example 2.03, trans-[5-(3-hydroxy-5,7-dihydro-4H-[1,2]oxazolo[5,4-c]pyridine-6-carbonyl)-3a-methoxy-3,4,6,6a-tetrahydro-1H-pyrrolo[3,4-c]pyrrol-2-yl]-[2-cyclopropyl-6-(oxan-4-ylmethoxy)pyridin-4-yl]methanone] | 0.018 µM |
| CO[C@@]12CN(C(=O)c3cc(OCC4CCOCC4)nc(C4CC4)c3)C[C@H]1CN(C(=O)N1CCc3c(O)noc3C1)C2 (single isomer, unassigned) [Example 3.01, trans-[5-(3-hydroxy-5,7-dihydro-4H-[1,2]oxazolo[5,4-c]pyridine-6-carbonyl)-3a-methoxy-3,4,6,6a-tetrahydro-1H-pyrrolo[3,4-c]pyrrol-2-yl]-[2-cyclopropyl-6-(oxan-4-ylmethoxy)pyridin-4-yl]methanone] | 0.02 µM |
| C[C@@]12CN(C(=O)OCc3ccc(OC(F)(F)F)cc3)C[C@H]1CN(C(=O)c1ccc3[nH]nnc3c1)C2 (single isomer, unassigned) [Example 3.02, (+)-trans-5-(1H-benzotriazole-5-carbonyl)-3a-methyl-hexahydro-pyrrolo[3,4-c]pyrrole-2-carboxylic acid 4-trifluoromethoxy-benzyl ester] | 0.012 µM |
| CO[C@@]12CN(C(=O)OCc3ccc(OC(F)(F)F)cc3)C[C@H]1CN(C(=O)c1ccc3[nH]nnc3c1)C2 (single isomer, unassigned) [Example 3.03, (−)-trans-5-(1H-benzotriazole-5-carbonyl)-3a-methoxy-hexahydro-pyrrolo[3,4-c]pyrrole-2-carboxylic acid 4-trifluoromethoxy-benzyl ester] | 0.019 µM |
| CO[C@@]12CN(C(=O)c3cc(OCC4CCOCC4)nc(C4CC4)c3)C[C@H]1CN(C(=O)N1CCc3c(O)noc3C1)C2 (single isomer, unassigned) [Example 4.01, trans-[5-(3-hydroxy-5,7-dihydro-4H-[1,2]oxazolo[5,4-c]pyridine-6-carbonyl)-3a-methoxy-3,4,6,6a-tetrahydro-1H-pyrrolo[3,4-c]pyrrol-2-yl]-[2-cyclopropyl-6-(oxan-4-ylmethoxy)pyridin-4-yl]methanone] | 0.008 µM |
| C[C@@]12CN(C(=O)OCc3ccc(OC(F)(F)F)cc3)C[C@H]1CN(C(=O)c1ccc3[nH]nnc3c1)C2 (single isomer, unassigned) [Example 4.02, (−)-trans-5-(1H-benzotriazole-5-carbonyl)-3a-methyl-hexahydro-pyrrolo[3,4-c]pyrrole-2-carboxylic acid 4-trifluoromethoxy-benzyl ester] | 0.006 µM |
| CO[C@@]12CN(C(=O)OCc3ccc(OC(F)(F)F)cc3)C[C@H]1CN(C(=O)c1ccc3[nH]nnc3c1)C2 (single isomer, unassigned) [Example 4.03, (+)-trans-5-(1H-benzotriazole-5-carbonyl)-3a-methoxy-hexahydro-pyrrolo[3,4-c]pyrrole-2-carboxylic acid 4-trifluoromethoxy-benzyl ester] | 0.007 µM |

same assay, conditions: ATX IC50, 30 nM ATX, 1 μM MR121 substrate, 30° C., pH 8.0

| Compound | IC50 |
| --- | --- |
| CO[C@]12CN(C(=O)c3cc(OCC4CCOCC4)nc(C4CC4)c3)C[C@@H]1CN(C(=O)N1CCc3[nH]nnc3C1)C2 (racemic) [Example 2.00, trans-[3a-Methoxy-5-(1,4,6,7-tetrahydrotriazolo[4,5-c]pyridine-5-carbonyl)-3,4,6,6a-tetrahydro-1H-pyrrolo[3,4-c]pyrrol-2-yl]-[2-cyclopropyl-6-(oxan-4-ylmethoxy)pyridin-4-yl]methanone] | 0.012 µM |
| CO[C@]12CN(C(=O)c3cc(OCC4CCOCC4)nc(C4CC4)c3)C[C@@H]1CN(C(=O)N1CCc3[nH]nnc3C1)C2 (single isomer, unassigned) [Example 3.00, trans-[3a-methoxy-5-(1,4,6,7-tetrahydrotriazolo[4,5-c]pyridine-5-carbonyl)-3,4,6,6a-tetrahydro-1H-pyrrolo[3,4-c]pyrrol-2-yl]-[2-cyclopropyl-6-(oxan-4-ylmethoxy)pyridin-4-yl]methanone] | 0.006 µM |
| CO[C@]12CN(C(=O)c3cc(OCC4CCOCC4)nc(C4CC4)c3)C[C@@H]1CN(C(=O)N1CCc3[nH]nnc3C1)C2 (single isomer, unassigned) [Example 4.00, trans-[3a-methoxy-5-(1,4,6,7-tetrahydrotriazolo[4,5-c]pyridine-5-carbonyl)-3,4,6,6a-tetrahydro-1H-pyrrolo[3,4-c]pyrrol-2-yl]-[2-cyclopropyl-6-(oxan-4-ylmethoxy)pyridin-4-yl]methanone] | 0.01 µM |
